# From patent US20250034170A1, “SMALL MOLECULE MODULATORS OF GLUCOCEREBROSIDASE ACTIVITY AND USES THEREOF” (Vanqua Bio, Inc., priority 2021, published 2025)
# Molecular target: T1, GCase (Homo sapiens, UniProt P04062)
# T1 construct: endogenous in cells; host or cells: HeLa cells
# T1 sequence (P04062 40-536): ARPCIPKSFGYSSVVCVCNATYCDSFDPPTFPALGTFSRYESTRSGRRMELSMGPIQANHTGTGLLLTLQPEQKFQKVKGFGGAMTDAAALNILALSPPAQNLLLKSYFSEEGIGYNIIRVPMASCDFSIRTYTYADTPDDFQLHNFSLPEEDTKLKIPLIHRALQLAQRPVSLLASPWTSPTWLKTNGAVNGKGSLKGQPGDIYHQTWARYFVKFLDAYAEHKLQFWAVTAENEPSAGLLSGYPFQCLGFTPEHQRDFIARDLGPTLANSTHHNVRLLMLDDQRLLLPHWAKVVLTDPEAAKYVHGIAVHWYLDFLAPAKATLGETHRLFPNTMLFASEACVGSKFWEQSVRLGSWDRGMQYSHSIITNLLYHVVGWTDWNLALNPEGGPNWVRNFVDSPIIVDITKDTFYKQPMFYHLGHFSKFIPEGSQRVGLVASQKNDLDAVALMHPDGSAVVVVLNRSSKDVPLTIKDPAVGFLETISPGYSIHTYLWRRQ
# Test: activation of GCase in a live cell PFB assay in HELA cells
# Format: cell-based
# Procedure: Exemplary compounds were evaluated for activation of GCase in a live cell PFB assay in HELA cells (essentially as described in Ysselstein et al., “LRRK2 kinase activity regulates lysosomal glucocerebrosidase in neurons derived from Parkinson's disease patients” Nature Communications (2019) 10:5570). […] EC50 ranges: A: <10 μM; B: >10-50 μM; C: >50-100 μM; D: >100 μM.
# [1] = activation of GCase, EC50 ranges
SMILES,EC50 [1] [µM],EC50 (EC50 given as range classes) [µM]
Cc1nc(C(F)(F)F)ncc1N1CCC2(CCN(c3cnc4cnn(CC(F)F)c4n3)CC2)C1 [Cmpd 761],< 10,–
"O=C1N(c2cc(C(F)(F)F)ccn2)CCC12CCCN(c1cnc3cnn(CC(F)F)c3n1)C2 (stereo not shown) [Compound 98, 7-[1-(2,2-difluoroethyl)-1H-pyrazolo[3,4-b]pyrazin-6-yl]-2-[4-(trifluoromethyl)pyridin-2-yl]-2,7-diazaspiro[4.5]decan-1-one]",50 to 100,–
CCN1C(=O)N(c2ccc(C(F)(F)F)nc2)C(=O)C12CCN(c1ncc3cnn(CC(F)F)c3n1)CC2 [Cmpd 873],10 to 50,–
O=C1CC2(CCN(c3cnc4cnn(CC(F)F)c4n3)CC2)CN1c1nccc(C(F)(F)F)n1 [Cmpd 275],< 10,–
O=C1CC2(CCN(c3ncc4cnn(CC(F)F)c4n3)CC2)CN1c1cnc(C(F)(F)F)nc1 [Cmpd 916],< 10,–
Cc1nn(CC(F)F)c2nc(N3CCC4(CC3)CN(c3cc(C(F)(F)F)ccn3)C4)ncc12 [Cmpd 491],10 to 50,–
Cc1nc(N2CCC3(CCN(c4cnc5c(C)nn(CC(F)(F)F)c5n4)C3)C2)cc(C(F)(F)F)n1 (stereo not shown) [Cmpd 604],–,> 100
FC(F)Cn1ncc2ncc(NC3COC4(C3)CN(c3cc(C(F)(F)F)ccn3)C4)nc21 (stereo not shown) [Cmpd 192],–,< 10
FC(F)Cn1ncc2ncc(N3CCC4(CCN(c5cnc(C(F)(F)F)cn5)C4)CC3)nc21 [Cmpd 734],< 10,–
CCN1C(=O)N(c2ccc(C(F)(F)F)nc2)C(=O)C12CCN(c1ncc3c(C)nn(CC(F)F)c3n1)CC2 [Cmpd 874],< 10,–
Cc1nc(N2CC3(CCN(c4ccc5cnn(CC(F)F)c5n4)CC3)C2)cc(C(F)(F)F)n1 [Cmpd 623],–,< 10
COc1nn(C2COC2)c2nc(N3CCC4(CN(c5ccnc(C(F)(F)F)c5)C4)C3)ncc12 [Cmpd 945],10 to 50,–
O=C1N(c2cncc(C(F)(F)F)c2)CCC12CCN(c1cnc3cnn(CC(F)F)c3n1)C2 (stereo not shown) [Cmpd 204],–,10 to 50
COc1nn(CC(F)F)c2nc(N3CCC4(CN(c5cc(C(F)(F)F)nc(C)n5)C4)C3)cnc12 [Cmpd 1095],10 to 50,–
CCn1ncc2ncc(N3CCC4(CC3)CC(=O)N(c3ccc(C(F)(F)F)nc3)C4)nc21 [Cmpd 890],< 10,–
Cn1cc(N2CCC3(CCN(c4cnc5cnn(CC(F)F)c5n4)CC3)C2=O)ccc1=O [Cmpd 845],10 to 50,–
Cn1c(N2CCC3(CC2)CC(=O)N(c2cc(C(F)(F)F)ccn2)C3)nc2c(cnn2CC(F)F)c1=O [Cmpd 922],< 10,–
Cc1nc(N2CC3(CCN(c4ncc5cnn(C6COC6)c5n4)C3)C2)cc(C(F)(F)F)n1 [Cmpd 589],–,10 to 50
O=C(c1cccc(OC(F)(F)F)c1)N1CC2(CCN(c3cnc4cnn(CC(F)F)c4n3)C2)C1 [Cmpd 388],–,10 to 50
"FC(F)Cn1ncc2ncc(N3CC4(CN(c5ccc(C(F)(F)F)nc5)CCO4)C3)nc21 [Compound 173, 2-[1-(2,2-difluoroethyl)-1H-pyrazolo[3,4-b]pyrazin-6-yl]-8-[6-(trifluoromethyl)pyridin-3-yl]-5-oxa-2,8-diazaspiro[3.5]nonane]",10 to 50,–
CC1CN(c2cnc3cnn(CC(F)F)c3n2)CCC12CCN(c1cc(C(F)(F)F)ccn1)C2 (stereo not shown) [Cmpd 746],< 10,–

SMILES,EC50 [1] [µM],EC50 (EC50 given as range classes) [µM]
"FC(F)Cn1ncc2ncc(N3CC4(CCN(c5ccc(C(F)(F)F)cn5)C4)C3)nc21 [Compound 182, 2-[1-(2,2-difluoroethyl)-1H-pyrazolo[3,4-b]pyrazin-6-yl]-6-[5-(trifluoromethyl)pyridin-2-yl]-2,6-diazaspiro[3.4]octane]",–,< 10
FC(F)(F)c1cc(N2CCC3(CCN(c4cnc5cnn(C6COC6)c5n4)C3)C2)ccn1 (stereo not shown) [Cmpd 487],10 to 50,–
Cc1nn(CC(F)F)c2nc(N3CCC4(CC(=O)N(c5ccnc(C(F)(F)F)c5)C4)C3)ncc12 (stereo not shown) [Cmpd 496],10 to 50,–
FC(F)Cn1ncc2ncc(NC3CCC4(CC3)CN(c3cncc(C(F)(F)F)c3)C4)nc21 [Cmpd 199],–,< 10
O=C1N(c2cc(C(F)(F)F)ccn2)CCC12CCN(c1cncc(N3CCCC3)n1)CC2 [Cmpd 245],10 to 50,–
Cc1nc(N2CCC3(CCN(c4cnc5c(C)nn(C6COC6)c5n4)C3)C2)cc(C(F)(F)F)n1 (stereo not shown) [Cmpd 543],10 to 50,–
Cc1nc(N2CCC3(CCN(c4cnc5cnn(CC(F)F)c5n4)CC3)C2)cc(C(F)(F)F)n1 [Cmpd 511],< 10,–
O=C1N(c2cncc(C(F)(F)F)c2)CCC12CCN(c1cnc3cnn(CC(F)F)c3n1)CC2 [Cmpd 674],< 10,–
O=C1CC2(CCN(c3cnc4cnn(C5COC5)c4n3)CC2)CN1c1ccnc(C(F)(F)F)n1 [Cmpd 907],< 10,–
Cc1nn(CC(F)F)c2nc(N3CCC4(CCN(c5ccnc(C(F)(F)F)c5)C4)C3)ncc12 (stereo not shown) [Cmpd 486],50 to 100,–
Cc1ncc(N2CC3(CCN(c4cnc5cnn(C6COC6)c5n4)C3)C2)c(C(F)(F)F)n1 [Cmpd 597],–,> 100
FC(F)(F)c1ncc(N2CC3(CCN(c4ncc5cnn(C6COC6)c5n4)C3)C2)cn1 [Cmpd 434],10 to 50,–
FC(F)Cn1ncc2cnc(N3CCC4(CCN(c5ccnc(C(F)(F)F)c5)C4)C3)nc21 (stereo not shown) [Cmpd 488],> 100,–
Cc1nc(N2CCC3(CCN(c4cnc5c(C)nn(CC(F)F)c5n4)C3)C2)cc(C(F)(F)F)n1 (stereo not shown) [Cmpd 537],> 100,–
Cc1cc(N2CC3(CCN(c4cnc5c(C)nn(C6COC6)c5n4)C3)C2)nc(C(F)(F)F)n1 [Cmpd 1143],< 10,–
Cc1nc(N2CC3(CCN(c4ccc5c(C)nn(CC(F)F)c5n4)CC3)CC2=O)cc(C(F)(F)F)n1 [Cmpd 628],–,< 10
O=C1CC2(CCN1c1cnc3cnn(CC(F)F)c3n1)CN(c1ccc(C(F)(F)F)cn1)C2 [Cmpd 911],10 to 50,–
Cc1cc(C(F)(F)F)cnc1N1CCC2(CCN(c3cnc4cnn(CC(F)F)c4n3)CC2)C1=O [Cmpd 775],> 100,–
Cc1cc(N2CC3(CCN(c4ncc5c(C)nn(CC(F)F)c5n4)C3)C2)nc(C)n1 [Cmpd 641],10 to 50,–
O=C1N(c2cc(C(F)(F)F)ccn2)C(=O)C2(CCN(c3cnc4cnn(CC(F)F)c4n3)CC2)N1CCC1CC1 [Cmpd 712],10 to 50,–
FC(F)(F)COc1cncc(N2CCC3(CCN(c4ccc(C(F)(F)F)nc4)C3)CC2)n1 [Cmpd 243],< 10,–

SMILES,EC50 [1] [µM],EC50 (EC50 given as range classes) [µM]
Cc1nn(CC(F)F)c2nc(N3CCC4(CC3)CCN(c3ccnc(C(F)(F)F)n3)C4=O)cnc12 [Cmpd 897],< 10,–
COc1nn(CC(F)F)c2nc(N3CCC4(CC3)CCN(c3ccc(C(F)(F)F)nc3)C4=O)cnc12 [Cmpd 835],< 10,–
FC(F)Cn1ncc2ncc(N3CCC4(CCN(c5cncc(C(F)(F)F)c5)CC4)CC3)nc21 [Cmpd 808],–,10 to 50
FC(F)(F)c1ccc(N2CCC3(CCN(c4cncc(-c5nncs5)n4)CC3)C2)nc1 [Cmpd 234],10 to 50,–
Cn1c(N2CCC3(CCN(c4ccnc(C(F)(F)F)n4)C3)CC2)nc2c(cnn2C2COC2)c1=O [Cmpd 1060],< 10,–
O=C1CC2(CC3CCC2CN3c2cnc3cnn(CC(F)F)c3n2)CN1c1ccc(C(F)(F)F)nc1 (stereo not shown) [Cmpd 865],10 to 50,–
"O=C1N(c2cc(C(F)F)ccn2)CCC12CCN(c1cnc3cnn(CC(F)(F)F)c3n1)CC2 [Compound 166, 2-[4-(difluoromethyl)pyridin-2-yl]-8-[1-(2,2,2-trifluoroethyl)-1H-pyrazolo[3,4-b]pyrazin-6-yl]-2,8-diazaspiro[4.5]decan-1-one]",< 10,–
Cc1nc(N2CCC3(CCN(c4nc5c(cnn5CC(F)F)c(=O)n4C)CC3)C2)cc(C(F)(F)F)n1 [Cmpd 1053],< 10,–
Cc1nc(N2CC3(CCN(c4cnc5c(C)nn(CC(F)F)c5n4)C3)C2)cc(C(F)(F)F)n1 [Cmpd 503],< 10,–
O=C1N(c2ncc3cnn(C4COC4)c3n2)CCC12CN(c1ccnc(C(F)(F)F)c1)C2 [Cmpd 1004],–,10 to 50
"FC(F)Cn1ncc2ncc(N3CCC4(CN(c5cc(C(F)(F)F)ccn5)CCO4)C3)nc21 (stereo not shown) [Compound 174, 2-[1-(2,2-difluoroethyl)-1H-pyrazolo[3,4-b]pyrazin-6-yl]-9-[4-(trifluoromethyl)pyridin-2-yl]-6-oxa-2,9-diazaspiro[4.5]decane]",50 to 100,–
O=C1CC2(CCN(c3cnc4cnn(C5COC5)c4n3)CC2)CN1c1cc(C(F)(F)F)ccn1 [Cmpd 284],50 to 100,–
FC(F)Cn1ncc2ncc(N3CCC4(CC3)CN(c3cc(C(F)(F)F)ccn3)c3ccccc34)nc21 [Cmpd 259],10 to 50,–
CC(F)(F)c1ncc(N2CC3(CCN(c4cnc5cnn(CC(F)F)c5n4)C3)C2)cn1 [Cmpd 1088],< 10,–
Cc1nn(CC(F)F)c2nc(N3CCC4(CC3)CC(=O)N(c3ccnc(C(F)(F)F)c3)C4)n(C)c(=O)c12 [Cmpd 1020],–,< 10
O=C1CC2(CCN(c3cnc4cnn(CC(F)F)c4n3)CC2)CN1Cc1cc(C(F)(F)F)ccn1 [Cmpd 359],< 10,–
"O=C1CC2(CCN(c3ccc(C(F)(F)F)nc3)CC2)CN1c1cnc2cnn(CC(F)F)c2n1 [Compound 110, 2-[1-(2,2-difluoroethyl)-1H-pyrazolo[3,4-b]pyrazin-6-yl]-8-[6-(trifluoromethyl)pyridin-3-yl]-2,8-diazaspiro[4.5]decan-3-one]",10 to 50,–
FC(F)Cn1ncc2ncc(N3CCC4(CN(c5cncc(Cl)c5)C4)C3)nc21 [Cmpd 401],–,10 to 50
CCc1cnc(CN2CC3(CCN(c4cnc5cnn(CC(F)F)c5n4)CC3)CC2=O)s1 [Cmpd 976],< 10,–
